Source: patent publication US9796711B2, “Substituted pyrazolo[3,4-b]pyridin-6-carboxylic acids and method of use” (AbbVie S.àr.l., priority 2015, dated 2017)
Like-named read-outs stand apart in the source and are kept apart here.

Columns and labels:
[1] = biological target: T1, CFTR ΔF508 (Homo sapiens, UniProt P13569, DEL508-508); assay: Acute TECC assay on primary bronchial epithelial cells, with and without co-corrector; assay type: cell-based; settings: normalized to DMSO and positive control; for % Activity at 3 μM with co-corrector (Ieq): bronchial epithelial cells from CF patients homozygous for CFTR ΔF508, 3 μM test compound for 24 h; for % Activity at 10 μM (Ieq*): bronchial epithelial cells from CF patients homozygous for CFTR ΔF508, 10 μM test compound for 24 h, without co-corrector, Ieq based on the maximum current
T1 construct: bronchial epithelial cells isolated from CF patients homozygous for the CFTR ΔF508 mutation; McGill University; Asterand; University of North Carolina hAEC-CF; host or cells: primary human bronchial epithelial cells from CF patients homozygous for ΔF508
T1 sequence (P13569 with tags, fused parts or gaps DEL508-508): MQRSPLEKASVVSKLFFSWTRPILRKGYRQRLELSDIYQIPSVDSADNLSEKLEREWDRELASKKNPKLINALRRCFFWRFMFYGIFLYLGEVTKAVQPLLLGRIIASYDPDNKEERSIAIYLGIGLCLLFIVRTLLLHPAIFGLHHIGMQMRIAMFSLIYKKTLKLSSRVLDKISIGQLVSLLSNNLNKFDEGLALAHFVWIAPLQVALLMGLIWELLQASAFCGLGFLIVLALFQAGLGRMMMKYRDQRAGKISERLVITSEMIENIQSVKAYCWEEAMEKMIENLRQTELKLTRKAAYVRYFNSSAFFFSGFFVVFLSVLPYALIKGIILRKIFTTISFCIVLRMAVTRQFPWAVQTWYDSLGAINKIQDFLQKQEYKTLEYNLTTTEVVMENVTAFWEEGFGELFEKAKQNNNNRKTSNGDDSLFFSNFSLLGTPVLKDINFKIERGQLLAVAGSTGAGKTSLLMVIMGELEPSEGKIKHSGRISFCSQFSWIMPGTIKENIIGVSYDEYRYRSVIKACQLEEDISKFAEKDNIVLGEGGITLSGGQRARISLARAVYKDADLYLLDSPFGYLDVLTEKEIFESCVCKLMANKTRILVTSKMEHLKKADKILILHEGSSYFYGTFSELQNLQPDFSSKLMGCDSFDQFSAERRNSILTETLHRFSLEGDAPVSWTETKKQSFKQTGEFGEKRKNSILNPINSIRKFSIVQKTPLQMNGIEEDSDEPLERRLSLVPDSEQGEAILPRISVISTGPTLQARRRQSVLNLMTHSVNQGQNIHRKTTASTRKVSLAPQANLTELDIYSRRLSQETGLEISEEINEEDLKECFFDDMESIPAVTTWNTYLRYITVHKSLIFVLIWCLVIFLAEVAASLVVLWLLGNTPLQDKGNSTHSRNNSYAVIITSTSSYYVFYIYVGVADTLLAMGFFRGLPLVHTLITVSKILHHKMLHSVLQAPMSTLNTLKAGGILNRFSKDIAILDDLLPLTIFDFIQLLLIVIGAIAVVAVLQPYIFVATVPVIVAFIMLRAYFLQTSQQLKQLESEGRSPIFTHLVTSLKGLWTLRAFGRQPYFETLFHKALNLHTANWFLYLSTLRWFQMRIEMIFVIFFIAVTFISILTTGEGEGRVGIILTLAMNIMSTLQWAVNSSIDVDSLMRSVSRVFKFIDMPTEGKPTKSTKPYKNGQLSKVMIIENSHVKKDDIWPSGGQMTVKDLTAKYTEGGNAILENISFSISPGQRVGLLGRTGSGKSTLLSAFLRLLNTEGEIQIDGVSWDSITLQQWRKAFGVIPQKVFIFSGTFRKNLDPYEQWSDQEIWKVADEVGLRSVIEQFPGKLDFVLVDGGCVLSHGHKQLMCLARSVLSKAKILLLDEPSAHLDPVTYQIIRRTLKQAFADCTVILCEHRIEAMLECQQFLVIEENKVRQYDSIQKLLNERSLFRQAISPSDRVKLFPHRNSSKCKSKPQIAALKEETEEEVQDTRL
Method: Primary Bronchial Epithelial Cells Protocol
The TECC (Tranepithelial Clamp Circuit, EP-design) assay measures the functionality of the cystic fibrosis Transmembrane Conductance regulator (CFTR) by measuring the short circuit current (Isc) generated over the basolateral and apical membrane of lung epithelial cells. In TECC the transepithelial potential PD and transepithelial resistance (Rt)) are measured in an open circuit and transformed to Ieq using Ohm's law. 24 Wells can be measured simultaneously allowing a higher throughput compared to Ussing chambers.
For this purpose, bronchial epithelial cells isolated from CF patients homozygous for the CFTR ΔF508 mutation (hAEC-CF, Epithelix, Geneva, Switzerland; McGill University, Montreal, Qc; Asterand, Detroit, Mich.; University of North Carolina, Chapel Hill, N.C.) are plated on type IV collagen-coated Transwell® supports (Costar). Human airway epithelia are generated by provision of an air-liquid interface for 21 days to form well-differentiated polarized cultures that resemble in vivo pseudo-stratified ciliated epithelium (Fulcher, M. L., Gabriel, S., Burns, K. A., Yankaskas, J. R., Randell, S. H., 2005. Well-differentiated human airway epithelial cell cultures. Methods Mol. Med. 107, 183-206). The differentiated cells are treated with test corrector compound(s) (corrector alone or in combination with co-corrector, 4-[(2R,4R)-4-({[1-(2,2-difluoro-1,3-benzodioxol-5-yl)cyclopropyl]carbonyl}amino)-7-methoxy-3,4-dihydro-2H-chromen-2-yl]benzoic acid (G924806/A-1618261) (“acute”) or test corrector compounds, co-corrector and potentiator, N-(3-carbamoyl-5,5,7,7-tetramethyl-4,7-dihydro-5H-thieno[2,3-c]pyran-2-yl)-1H-pyrazole-5-carboxamide GLPG1837, (“chronic”) for 24 hours basolaterally to allow sufficient expression of properly folded CFTR protein on the membrane. All compound plates contained negative controls (DMSO) and positive controls (0.15 μM, 4-[(2R,4R)-4-({[1-(2,2-difluoro-1,3-benzodioxol-5-yl)cyclopropyl]carbonyl}amino)-7-(difluoromethoxy)-3,4-dihydro-2H-chromen-2-yl]benzoic acid).
For electrophysiological recording of the “acute” experiments, the human airway epithelia are mounted in the TECC heating plate and kept at 37° C. The epithelia are bathed in a NaCl-Ringer solution (120 mM NaCl, 25 mM NaHCO3, 1.2 mM CaCl2, 1.2 mM MgCl2, 0.8 mM KH2PO4, 0.8 mM K2HPO4, pH 7.4, 5 mM glucose) on both the basolateral and apical sides. Apical amiloride is used to inhibit the endogenous epithelial sodium channel (ENaC) currents while forskolin is applied on both apical and basolateral side to stimulate CFTR. CFTR activity is measured by addition of forskolin followed by addition of a potentiator, N-(3-carbamoyl-5,5,7,7-tetramethyl-4,7-dihydro-5H-thieno[2,3-c]pyran-2-yl)-1H-pyrazole-5-carboxamide, on both sides. Measurements are done during a 20 minute timeframe with recordings every 2 minutes. The increase in Ieq is used as a measure for the increased CFTR activity, EC50 values can be generated by measuring impact of different concentrations of compound on Ieq on primary cells, for this purpose each transwell is treated with a different compound concentration for 24 hours. Inhibitor-172, an inhibitor specific for CFTR, is used to test the specificity of the tested compounds. Raw data were normalized to percentage activity values using the equation: 100×(Sample−Negative control)/(Positive control−Negative Control).

[2] = biological target: T1, CFTR ΔF508; assay: Chronic TECC assay on primary bronchial epithelial cells (corrector, co-corrector and potentiator); assay type: cell-based; settings: chronic TECC, with co-corrector and potentiator, 24 hours
Outline: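 Differentiated airway epithelia from CFTR ΔF508-homozygous CF patients (21 days air-liquid interface) were treated basolaterally for 24 h with corrector plus co-corrector and potentiator; compounds were re-added before TECC recording at 37 °C in NaCl-Ringer, pH 7.4. Forskolin-stimulated Ieq increase after apical amiloride, normalized to DMSO and positive controls; EC50 from concentration series.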

[3] = 1 μM, Ieq = calculations based on the maximum current
[4] = Ieq = calculations based on the maximum current, read-out: EC50 (nM) (Ieq)

SMILES: CC(C)c1nn(-c2cccc(N3CCCC3)c2)c2nc(C(=O)O)cc(-c3ccc(N4CCC(C#N)CC4)nc3)c12 [compound 222, 4-[6-(4-cyanopiperidin-1-yl)pyridin-3-yl]-3-(propan-2-yl)-1-[3-(pyrrolidin-1-yl)phenyl]-1H-pyrazolo[3,4-b]pyridine-6-carboxylic acid]
- % Activity at 3 μM with co-corrector (Ieq) [1]: 221.3%

SMILES: CC(C)c1nn(C2CCCCC2)c2nc(C(=O)O)cc(-c3ccc(N(C)C4CCOCC4)nc3)c12 [compound 169, 1-cyclohexyl-4-{6-[methyl(oxan-4-yl)amino]pyridin-3-yl}-3-(propan-2-yl)-1H-pyrazolo[3,4-b]pyridine-6-carboxylic acid]
- % Activity at 3 μM with co-corrector (Ieq) [1]: 279.1%

SMILES: CC(C)c1nn(-c2cccc(N3CCC3)c2)c2nc(C(=O)O)cc(-c3ccc(N4CCOCC4)cc3)c12 [compound 151, 1-[3-(azetidin-1-yl)phenyl]-4-[4-(morpholin-4-yl)phenyl]-3-(propan-2-yl)-1H-pyrazolo[3,4-b]pyridine-6-carboxylic acid]
- % Activity at 10 μM (Ieq*) [1]: 100.6%

SMILES: Cc1nn(-c2ccccc2)c2nc(C(=O)O)cc(N3CCCCC3)c12 [compound 123, 3-methyl-1-phenyl-4-(piperidin-1-yl)-1H-pyrazolo[3,4-b]pyridine-6-carboxylic acid]
- % Activity at 10 μM (Ieq*) [1]: 100.6%

SMILES: CC(C)c1nn(-c2cccc(N3CCOCC3)c2)c2nc(C(=O)O)cc(-c3ccc(N(C)C)nc3)c12 [compound 89, 4-[6-(dimethylamino)pyridin-3-yl]-1-[3-(morpholin-4-yl)phenyl]-3-(propan-2-yl)-1H-pyrazolo[3,4-b]pyridine-6-carboxylic acid]
- % Activity at 10 μM (Ieq*) [1]: 147.6%

SMILES: N#CC1CCN(c2ccc(-c3cc(C(=O)O)nc4c3c(C3CCC3)nn4C3CCCCC3)cn2)CC1 [compound 220, 4-[6-(4-cyanopiperidin-1-yl)pyridin-3-yl]-3-cyclobutyl-1-cyclohexyl-1H-pyrazolo[3,4-b]pyridine-6-carboxylic acid]
- % Activity at 3 μM with co-corrector (Ieq) [1]: 122.9%
- % Activity at 1 μM (Ieq*) [2, 3]: 720%
- EC50 [2, 4]: 120 nM

SMILES: Cc1cccc(-n2nc(C(C)C)c3c(N4CCC(CO)CC4)cc(C(=O)O)nc32)c1 [compound 213, 4-[4-(hydroxymethyl)piperidin-1-yl]-1-(3-methylphenyl)-3-(propan-2-yl)-1H-pyrazolo[3,4-b]pyridine-6-carboxylic acid]
- % Activity at 3 μM with co-corrector (Ieq) [1]: 199.4%
- % Activity at 1 μM (Ieq*) [2, 3]: 390%
- EC50 [2, 4]: > 300 nM

SMILES: O=C(O)c1cc(N2CCC(N3CCC(F)CC3)CC2)c2c(C3CCC3)nn(-c3ccc(F)cc3)c2n1 [compound 849, 3-cyclobutyl-4-(4-fluoro[1,4′-bipiperidin]-1′-yl)-1-(4-fluorophenyl)-1H-pyrazolo[3,4-b]pyridine-6-carboxylic acid]
- % Activity at 1 μM (AUC**) ([2]; 1 μM, AUC = full area under the curve upon forskolin stimulation): 256.6667%
- EC50 ([2]; AUC = full area under the curve upon forskolin stimulation, read-out: EC50 (nM) (AUC)): 15.6 nM
